The values below come from patent US20090306072A1, “USE OF TYROSINE KINASE INHIBITORS FOR THE TREATMENT OF INFLAMMATORY PROCESSES” (Boehringer Ingelheim Pharma GmbH & Co. KG, priority 2002, published 2009).

In the first data set the test system is cigarette smoke-induced influx of neutrophilic granulocytes into the lung tissue. The data set can be described thus: Test 1: inhibition of smoke-induced accumulation of granulocytes in the lung tissue (MPO activity). The class given is in vivo, rats (Sprague-Dawley). To be noted: Rattus norvegicus; male rats, smoke from 8 cigarettes a day for 5 days; intratracheal dose each day 30 mins before smoke exposure; lung tissue MPO; linear regression; read-out: ID50 (dosage that produced a 50% inhibition of the MPO activity). The method, then: Male rats (breed: Sprague-Dawley) weighing from 250-300 g were exposed to the smoke from 8 cigarettes a day for 5 days. […] On the last day of the experiment the animals were killed 4 hours after the final smoke exposure and the lung tissue was removed. From each lung a sample of 70-200 mg was taken and placed in a prepared test tube containing 1 ml of 0.5% hexadecyltrimethyl ammonium bromide. The samples were homogenised for 15 sec with an Ultraturrax. The homogenates were centrifuged off in an Eppendorf bench centrifuge at 15700 g for 5 min at ambient temperature. […] After 10 minutes' incubation at ambient temperature, the absorption was measured with a spectral photometer at a wavelength of 450 nm.
In the case of `C=CC(=O)Nc1cc2c(Nc3ccc(F)c(Cl)c3)ncnc2cc1OCCCCN1CC(=O)O[C@H](C)C1` [B, 4-[(3-chloro-4-fluoro-phenyl)amino]-7-[4-((R)-6-methyl-2-oxo-morpholin-4-yl)-butyloxy]-6-[(vinylcarbonyl)amino]-quinazoline], the ED50 worked out at 0.03 mg/kg.
Same read-out and setting: under `C=CC(=O)Nc1cc2c(Nc3ccc(F)c(Cl)c3)ncnc2cc1OCCCCN1CC(=O)OC(C)(C)C1` [C, 4-[(3-chloro-4-fluoro-phenyl)amino]-7-[4-(2,2-dimethyl-6-oxo-morpholin-4-yl)-butyloxy]-6-[(vinylcarbonyl)amino]-quinazoline] stands 0.03 mg/kg; under `C=CC(=O)Nc1cc2c(Nc3ccc(F)c(Cl)c3)ncnc2cc1OCCCCN1CC(=O)O[C@@H](C)C1` [D, 4-[(3-chloro-4-fluoro-phenyl)amino]-7-[4-((S)-6-methyl-2-oxo-morpholin-4-yl)-butyloxy]-6-[(vinylcarbonyl)amino]-quinazoline], 0.3 mg/kg.
On the same count and under the same terms, to `COCCN(CC=CC(=O)Nc1cc2c(Nc3ccc(F)c(Cl)c3)ncnc2cc1OCC1CC1)CCOC` [E, 4-[(3-chloro-4-fluoro-phenyl)amino]-6-({4-[bis-(2-methoxyethyl)-amino]-1-oxo-2-buten-1-yl}amino)-7-cyclopropylmethoxy-quinazoline] belongs 0.2 mg/kg; to `C[C@@H]1CN(CC=CC(=O)Nc2cc3c(Nc4ccc(F)c(Cl)c4)ncnc3cc2OCC2CC2)CC(=O)O1` [F, 4-[(3-chloro-4-fluoro-phenyl)amino]-6-{[4-((R)-6-methyl-2-oxo-morpholin-4-yl)-1-oxo-2-buten-1-yl]amino}-7-cyclopropylmethoxy-quinazoline], 0.3 mg/kg; to `COC[C@@H]1CN(CC=CC(=O)Nc2cc3c(Nc4ccc(F)c(Cl)c4)ncnc3cc2OCC2CC2)CC(=O)O1` [H, 4-[(3-chloro-4-fluoro-phenyl)amino]-6-{[4-((S)-2-methoxymethyl-6-oxo-morpholin-4-yl)-1-oxo-2-buten-1-yl]amino}-7-cyclopropylmethoxy-quinazoline], 0.3 mg/kg.
For the compound `CCN(CC=CC(=O)Nc1cc2c(N[C@H](C)c3ccccc3)ncnc2cc1OCC1CC1)CCOC` [I, 4-[(R)-(1-phenyl-ethyl)amino]-6-({4-[N-(2-methoxy-ethyl)-N-ethyl-amino]-1-oxo-2-buten-1-yl}amino)-7-cyclopropylmethoxy-quinazoline], the ED50 turned out to be 0.2 mg/kg.
Turning to `COCCN(CC=CC(=O)Nc1cc2c(N[C@H](C)c3ccccc3)ncnc2cc1OCC1CC1)CCOC` [K, 4-[(R)-(1-phenyl-ethyl)amino]-6-{[4-(N,N-bis-(2-methoxy-ethyl)-amino)-1-oxo-2-buten-1-yl]amino}-7-cyclopropylmethoxy-quinazoline], the ED50 was determined as 0.3 mg/kg.
On the same count and under the same terms, to `C[C@@H](Nc1ncnc2cc(OCC3CC3)c(NC(=O)C=CCN(C)C3CCOCC3)cc12)c1ccccc1` [L, 4-[(R)-(1-phenyl-ethyl)amino]-6-({4-[N-(tetrahydropyran-4-yl)-N-methyl-amino]-1-oxo-2-buten-1-yl}amino)-7-cyclopropylmethoxy-quinazoline] belongs 0.1 mg/kg; to `COc1cc2ncnc(Nc3ccc(F)c(Cl)c3)c2cc1OCCN1CC(=O)O[C@@H](C)C1` [compound A, 4-[(3-chloro-4-fluoro-phenyl)amino]-6-[2-((S)-6-methyl-2-oxo-morpholin-4-yl)-ethoxy]-7-methoxy-quinazoline], 0.1 mg/kg.

Staying with this data set, now noted: male rats, smoke from 8 cigarettes a day for 5 days; intratracheal dose each day 30 mins before smoke exposure; lung tissue MPO; linear regression.
Take “4-[(3-chloro-4-fluoro-phenyl)amino]-6-[2-((S)-6-methyl-2-oxo-morpholin-4-yl)-ethoxy]-7-methoxy-quinazoline [G]”: the “ID50 (dosage that produced a 50% inhibition of the MPO activity)” value is given as less than 0.03 mg/kg.

The data set is the same for the next values; noted with them: rats, intratracheal 0.03 or 0.1 mg/kg daily, lung tissue myeloperoxidase.
Turning to `COc1cc2ncnc(Nc3ccc(F)c(Cl)c3)c2cc1OCCN1CC(=O)O[C@@H](C)C1` [compound A, 4-[(3-chloro-4-fluoro-phenyl)amino]-6-[2-((S)-6-methyl-2-oxo-morpholin-4-yl)-ethoxy]-7-methoxy-quinazoline], the “inhibition of the smoke-induced accumulation of granulocytes” value is recorded as “significant (p<0.005) inhibition”.

A further data set has as its system zymosan-induced influx of neutrophilic granulocytes in the mouse ear. The data set can be described thus: Test 2: inhibition of the zymosan-induced influx of neutrophilic granulocytes in the mouse ear (MPO activity). The class given is in vivo. To be noted: female NMRI mice, ear biopsy 24 h after intradermal zymosan; p<0.005. The text has this:
• Test 2: Detection of a general anti-inflammatory principle of activity by inhibition of the zymosan-induced influx of neutrophilic granulocytes in the mouse ear by the EGF-receptor kinase inhibitor 4-[(3-chloro-4-fluoro-phenyl)amino]-6-[(4-dimethylamino-cyclohexyl)amino]-pyrimido[5,4-d]pyrimidine (compound N).
Determining the influx of neutrophilic granulocytes by measuring the myeloperoxidase (MPO) activity in the tissue. MPO is specific for neutrophilic granulocytes.
Female mice (breed: NMRI) weighing 20-25 g were anaesthetised with pentobarbital 60 mg/kg i.p. […] of zymosan dissolved in physiological saline in a volume of […] were administered intradermally into the right ear. 24 h after the intradermal application of zymosan the animals were killed with an overdose of pentobarbital. An ear biopsy (0=8 mm) was taken from the left (untreated) and right (treated) ear and placed in a test tube prepared with 1 ml of 0.5% HTAB. The samples were homogenised for 15 sec with an Ultraturrax. The homogenised preparations were centrifuged for 5 min in an Eppendorf bench centrifuge at 15700 g at ambient temperature. […] After 10 minutes' incubation at ambient temperature the absorption was measured with a spectral photometer at a wavelength of 450 nm.
Regarding `CN(C)C1CCC(Nc2ncc3ncnc(Nc4ccc(F)c(Cl)c4)c3n2)CC1` (stereo not drawn) [compound N, 4-[(3-chloro-4-fluoro-phenyl)amino]-6-[(4-dimethylamino-cyclohexyl)amino]-pyrimido[5,4-d]pyrimidine], the “inhibition of the zymosan-induced increase in the MPO activity in the tissue” value is on record as 60%.

Test system in a further data set: not given
Experiment: not given
Conditions: not given
As a reminder, the melting point is the temperature, or range, at which the solid turns liquid. For the compound `C=CC(=O)Nc1cc2c(Nc3ccc(F)c(Cl)c3)ncnc2cc1OCCCCN1CC(=O)OC(C)(C)C1` [C, 4-[(3-chloro-4-fluoro-phenyl)amino]-7-[4-(2,2-dimethyl-6-oxo-morpholin-4-yl)-butyloxy]-6-[(vinylcarbonyl)amino]-quinazoline], the melting point is 110 to 112 °C.
As for `CN(C)CC=CC(=O)Nc1cc2c(Nc3ccc(F)c(Cl)c3)ncnc2cc1OCC1CC1` [Example 3(2), 4-[(3-chloro-4-fluorophenyl)amino]-6-{[4-(N,N-dimethylamino)-1-oxo-2-buten-1-yl]-amino}-7-cyclopropylmethoxy-quinazoline], the melting point is 137 °C.
Still for that read-out and setting: to `CCN(CC)CC=CC(=O)Nc1cc2c(Nc3ccc(F)c(Cl)c3)ncnc2cc1OCC1CC1` [Example 3, 4-[(3-chloro-4-fluorophenyl)amino]-6-{[4-(N,N-diethylamino)-1-oxo-2-buten-1-yl]amino}-7-cyclopropylmethoxy-quinazoline] belongs 114 °C.
The same measure, in the same setting: under `CCOC(=O)CN(C)CC=CC(=O)Nc1cc2c(Nc3cccc(C)c3)ncnc2cc1OC` [Example 4, 4-[(3-methylphenyl)amino]-6-[(4-{N-[(ethoxycarbonyl)methyl]-N-methylamino}-1-oxo-2-buten-1-yl)amino]-7-methoxy-quinazoline] stands 122 to 124 °C; under `C[C@H]1CN(CC=CC(=O)Nc2cc3c(Nc4ccc(F)c(Cl)c4)ncnc3cc2OCC2CC2)CC(=O)O1` [Example 6, 4-[(3-chloro-4-fluoro-phenyl)amino]-6-{[4-((S)-6-methyl-2-oxo-morpholin-4-yl)-1-oxo-2-buten-1-yl]amino}-7-cyclopropylmethoxy-quinazoline], 173 to 175 °C; under `COc1cc2ncnc(Nc3cccc(Br)c3)c2cc1OCCN1CC(=O)O[C@@H](C)C1` [Example 7, 4-[(3-bromo-phenyl)amino]-6-[2-((S)-6-methyl-2-oxo-morpholin-4-yl)-ethoxy]-7-methoxy-quinazoline], 190 °C.
The same measure, in the same setting: under `CN(CC=CC(=O)Nc1cc2c(Nc3ccc(F)c(Cl)c3)ncnc2cc1OC1CCCC1)C1CC1` [Example 8(9), 4-[(3-chloro-4-fluorophenyl)amino]-6-{[4-(N-cyclopropyl-N-methyl-amino)-1-oxo-2-buten-1-yl]amino}-7-cyclopentyloxy-quinazoline] stands 140 °C; under `CN(C)CC=CC(=O)Nc1cc2c(Nc3ccc(F)c(Cl)c3)ncnc2cc1OC[C@H]1CCCO1` [Example 8(10), 4-[(3-chloro-4-fluorophenyl)amino]-6-{[4-(N,N-dimethylamino)-1-oxo-2-buten-1-yl]-amino}-7-[(R)-(tetrahydrofuran-2-yl)methoxy]-quinazoline], 110 to 112 °C.
